According to PubChem BioAssay (NCI):
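Briefly, cells in 96-well plates were exposed to five compound concentrations for 48 h, and endpoints were estimated by linear interpolation. TGI is the concentration that stops growth completely.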

Experiments:
Test in all cases: NCI-60 cell line screen, 48 h
KM20L2 colon = test system: KM20L2 colon
CAKI-1 renal = test system: CAKI-1 renal
NCI-H23 lung = test system: NCI-H23 lung
NCI-H522 lung = test system: NCI-H522 lung
SF-295 CNS = test system: SF-295 CNS
SN12C renal = test system: SN12C renal
MALME-3M melanoma = test system: MALME-3M melanoma
SF-268 CNS = test system: SF-268 CNS
COLO 205 colon = test system: COLO 205 colon
HCT-116 colon = test system: HCT-116 colon
EKVX NSCLC = test system: EKVX NSCLC
ACHN renal = test system: ACHN renal
HT29 colon = test system: HT29 colon
SNB-75 CNS = test system: SNB-75 CNS
M19-MEL melanoma = test system: M19-MEL melanoma
DMS 273 small cell lung = test system: DMS 273 small cell lung
SNB-19 CNS = test system: SNB-19 CNS
LXFL 529 NSCLC = test system: LXFL 529 NSCLC
SR leukemia = test system: SR leukemia
OVCAR-4 ovarian = test system: OVCAR-4 ovarian
MOLT-4 leukemia = test system: MOLT-4 leukemia
OVCAR-8 ovarian = test system: OVCAR-8 ovarian
UO-31 renal = test system: UO-31 renal
SK-MEL-28 melanoma = test system: SK-MEL-28 melanoma
K-562 leukemia = test system: K-562 leukemia
OVCAR-5 ovarian = test system: OVCAR-5 ovarian
RXF-631 renal = test system: RXF-631 renal
LOX IMVI melanoma = test system: LOX IMVI melanoma
A498 renal = test system: A498 renal
RPMI-8226 leukemia = test system: RPMI-8226 leukemia
SK-MEL-5 melanoma = test system: SK-MEL-5 melanoma
IGROV1 ovarian = test system: IGROV1 ovarian
SK-OV-3 ovarian = test system: SK-OV-3 ovarian
NCI-H226 lung = test system: NCI-H226 lung
NCI-H460 lung = test system: NCI-H460 lung
HCT-15 colon = test system: HCT-15 colon
UACC-257 melanoma = test system: UACC-257 melanoma
786-0 renal = test system: 786-0 renal
KM12 colon = test system: KM12 colon
HOP-18 NSCLC = test system: HOP-18 NSCLC
SW-620 colon = test system: SW-620 colon
RXF 393 renal = test system: RXF 393 renal
SK-MEL-2 melanoma = test system: SK-MEL-2 melanoma
A549 NSCLC = test system: A549 NSCLC
HOP-92 NSCLC = test system: HOP-92 NSCLC
HL-60(TB) leukemia = test system: HL-60(TB) leukemia
UACC-62 melanoma = test system: UACC-62 melanoma
U251 CNS = test system: U251 CNS
M14 melanoma = test system: M14 melanoma
DMS 114 small cell lung = test system: DMS 114 small cell lung
CCRF-CEM leukemia = test system: CCRF-CEM leukemia
SNB-78 CNS = test system: SNB-78 CNS

Measured: TGI

COC(=O)C(=O)C(C(=O)C(=O)Nc1ccccc1[N+](=O)[O-])c1nc2ccc([N+](=O)[O-])cc2[nH]c1=O (configuration not stated)
> 100 µM: all assays above
